Reference: patent publication EP4311545A1, “COMPOUNDS USEFUL FOR THE POST-STING TREATMENT FROM A CNIDARIAN ORGANISM” (Isdin, S. A., priority 2022, dated 2024)

Test system: P. noctiluca
Test: Tentacle Skin Blood Agarose Assay (TSBAA): venom load after natural stimulation of nematocyst discharge
Format: cell-based
Details: for discharge of nematocysts: summary of the results of Examples 1 and 2
Description: Example 2: Natural stimulation of nematocyst discharge. Tentacle Skin Blood Agarose Assay (TSBAA).
Briefly, an agarose gel preparation incorporating sheep red blood cells (SRBCs) (Thermo Fisher Scientific) was used covered by a thin tissue of pig intestine to simulate the effect of the human skin barrier.
A solution of 4% low melting point agarose (INVITROGEN ™ LMP Agarose) in phosphate buffered saline (PBS) (SIGMA) was prepared and cooled to room temperature for a few minutes. The SRBCs were centrifuged and resuspended in PBS until a final concentration of 2% was obtained. Equal volumes of both preparations were mixed and poured onto a glass surface with a mold (18x7.5 cm) and allowed to cool to room temperature. Once the agarose with SRBCs was set, rectangles were cut and placed on slides and kept at 4 °C in a humidification chamber (maximum 72 hours until use).
Pig small intestine tissue was washed in a 50 mM saline solution and then cut in rectangular sections. […] The next day, the sections were stretched on a glass surface and allowed to dry for a few minutes in the open air. The pretreated sections of the pig small intestine were placed on the SRBC agarose rectangles
Cutting tentacles of the same size is a complicated process due to the contraction and expansion of the tentacles after their manipulation. In order to control the sting area, we design plastic molds obtained through a 3D printer.
Tentacle pieces of approximately 3 cm long were incubated on reductor or inhibitory solutions (Method 3) for 5 minutes. Consecutively, the agarose rectangles were stung by a sting diameter of 57,35 mm^2 for 1 minute. A weight of 0,66 g was applied to ensure the contact between the tentacle and the skin. After the sting process, the plastic molds and the intestine sections were removed and the SRBC's agarose rectangles were stored in the humidification chamber at room temperature. After a period of 22 hours, images of the hemolytic areas were obtained with a camera. Hemolytic areas were calculated using the Fiji version of ImageJ software (J. Schindelin et al., Fiji: an open-source platform for biological-image analysis. Nature methods, 2012, vol. 9, pp. 676-682). Table 2. Inhibitory efficacy on the venom load to P. noctiluca.

Row | SMILES | discharge of nematocysts | Venom load - Hemolytic area (%) (tentacles incubated 5 minutes in solution, sting 1 minute on SRBC agarose covered with pig intestine, read after 22 hours) | % Inhibitory ({})
1 | CC(C)(C)C1CCC(O)CC1 (stereo not shown) [4-tert-butyl cyclohexanol] | significantly reduces | – | –
2 | CC(O)CCO (stereo not shown) [100% Butylene glycol, Butylene glycol] | – | 26.54 ± 19.66% | 56.33%
3 | O=C(CO)c1ccccc1 [HAP, hydroxy acetophenone] | significantly reduces | – | –
